# Measured values from US10174002B2, “Pyridine derivatives as CFTR modulators” (NuBridge BioSciences, priority 2015, dated 2019).
# Target: T1, ΔF508 mutant CFTR (Homo sapiens, UniProt P13569, DEL508-508)
# T1 construct: expressed in transfected cells; host or cells: Fischer rat thyroid (FRT) cells, co-expressing the halide-sensitive YFP-H148Q/I152L
# Test: Fluorescence Assay of ΔF508 mutant CFTR activity (halide-sensitive YFP quenching by iodide influx in FRT cells)
# Type: cell-based
# Design: key: fold of mean activity with forskolin alone (I− quenching rate)
# Details: test compounds 20 μM with forskolin 20 μM, 20 min; FRT cells expressing ΔF508-CFTR and YFP-H148Q/I152L, incubated at 27° C. 20-24 h; rate of fluorescence quenching by I−, normalized to mean activity with forskolin alone
# Text: The ΔF508 mutant CFTR activities of the CFTR modulators are detected using the Fluorescence Assay developed by Pedemonte (Pedemonte N., et al., Antihypertensive 1,4-dihydropyridines as correctors of the cystic fibrosis transmembrane conductance regulator channel gating defect caused by cystic fibrosis mutations, Mol. Pharmacol., 2005, 68, 1736-1746).
# Fischer rat thyroid (FRT) cells, stably transfected with ΔF508 were retransfected with the YFP-H148Q/I152L fluorescent protein. The cells were plated (100,000 cells/well) on black 96-well microplates with clear plastic bottom (Corning Life Sciences, Acton, Mass.).
# The 96-well microplates containing FRT cells expressing F508-CFTR and the halide-sensitive YFP were incubated at 27° C. for 20 to 24 h to allow rescue of the mutant protein to the plasma membrane. After incubation, cells were washed with PBS (containing 137 mM NaCl, 2.7 mM KCl, 8.1 mM Na2HPO4, 1.5 mM KH2PO4, 1 mM CaCl2, and 0.5 mM MgCl2) and stimulated for 20 min with forskolin (20 μM) and test compounds (20 μM) in a final volume of 60 μl. Microplates were then transferred to a microplate reader for CFTR activity determination. Each assay consisted of a continuous 14-s fluorescence reading (5 points per second) with 2 s before and 12 s after injection of 165 μl of an iodide-containing solution (PBS with Cl^− replaced by I^−). Final iodide concentration in the wells was 100 mM. […] To determine I^− influx rate, the final 11 s of the data for each well were fitted with an exponential function to extrapolate initial slope. CFTR activity was determined by measuring the rate of fluorescence quenching induced by extracellular addition of I^−. Data are normalized to the mean activity measured in the presence of forskolin alone.
# T1 sequence (P13569 with tags, fused parts or gaps DEL508-508): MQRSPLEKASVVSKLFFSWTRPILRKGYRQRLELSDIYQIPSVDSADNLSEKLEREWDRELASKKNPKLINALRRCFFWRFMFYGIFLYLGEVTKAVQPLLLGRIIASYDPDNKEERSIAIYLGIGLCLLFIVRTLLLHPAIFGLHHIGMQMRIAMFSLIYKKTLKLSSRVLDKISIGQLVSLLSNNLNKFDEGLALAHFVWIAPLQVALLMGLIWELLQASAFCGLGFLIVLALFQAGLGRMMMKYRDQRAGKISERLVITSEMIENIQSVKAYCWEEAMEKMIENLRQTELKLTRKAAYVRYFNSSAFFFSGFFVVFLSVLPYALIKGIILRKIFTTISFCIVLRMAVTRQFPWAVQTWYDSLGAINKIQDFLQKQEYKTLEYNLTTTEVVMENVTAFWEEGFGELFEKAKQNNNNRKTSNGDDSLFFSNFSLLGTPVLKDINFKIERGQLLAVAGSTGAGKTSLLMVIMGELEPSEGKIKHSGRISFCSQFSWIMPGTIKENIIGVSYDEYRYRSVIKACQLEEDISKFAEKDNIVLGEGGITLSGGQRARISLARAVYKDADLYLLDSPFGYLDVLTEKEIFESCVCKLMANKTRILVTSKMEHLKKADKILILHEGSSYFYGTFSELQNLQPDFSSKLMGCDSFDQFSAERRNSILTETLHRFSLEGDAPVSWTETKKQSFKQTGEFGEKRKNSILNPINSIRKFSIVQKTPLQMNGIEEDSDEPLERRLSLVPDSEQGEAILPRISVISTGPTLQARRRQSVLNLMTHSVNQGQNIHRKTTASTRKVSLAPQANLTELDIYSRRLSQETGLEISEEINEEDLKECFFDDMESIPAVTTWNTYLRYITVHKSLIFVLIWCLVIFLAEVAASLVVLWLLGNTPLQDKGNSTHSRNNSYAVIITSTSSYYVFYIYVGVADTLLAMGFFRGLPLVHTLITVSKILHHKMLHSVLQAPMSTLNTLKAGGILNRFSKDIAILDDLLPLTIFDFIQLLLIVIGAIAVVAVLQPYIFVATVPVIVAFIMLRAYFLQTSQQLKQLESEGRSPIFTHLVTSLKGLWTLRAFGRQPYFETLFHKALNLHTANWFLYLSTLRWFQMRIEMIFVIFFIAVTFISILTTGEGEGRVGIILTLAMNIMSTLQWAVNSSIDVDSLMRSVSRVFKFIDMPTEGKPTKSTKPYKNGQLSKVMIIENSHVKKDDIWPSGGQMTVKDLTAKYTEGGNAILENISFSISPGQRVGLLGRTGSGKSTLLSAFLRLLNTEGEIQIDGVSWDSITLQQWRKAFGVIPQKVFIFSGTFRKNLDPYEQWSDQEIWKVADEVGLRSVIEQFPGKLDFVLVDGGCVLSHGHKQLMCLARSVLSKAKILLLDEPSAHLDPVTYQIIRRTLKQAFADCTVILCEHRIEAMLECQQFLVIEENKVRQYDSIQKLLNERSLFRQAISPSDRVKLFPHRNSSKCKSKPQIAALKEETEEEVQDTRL
row,Compound,CFTR Activity
1,"Cl.Nc1cc(C(F)(F)F)c(-c2ccccc2)nc1C(=O)Nc1cnccc1OC1CCNC1 (centres unmarked) [Example 53, 3-amino-6-phenyl-N-(4-(pyrrolidin-3-yloxy)pyridin-3-yl)-5-(trifluoromethyl)picolinamide hydrochloride]",2.5
2,"Cl.N[C@H]1CC[C@H](Oc2ccncc2NC(=O)c2ccc(C(F)(F)F)c(-c3c(F)cccc3F)n2)CC1 [Example 46, N-(4-(((1r,4r)-4-aminocyclohexyl)oxy)pyridin-3-yl)-6-(2,6-difluorophenyl)-5-(trifluoromethyl)picolinamide hydrochloride]",3.1
3,"Cl.Nc1cc(F)c(-c2c(F)cccc2F)nc1C(=O)Nc1cnccc1OCC1CCNC1 (centres unmarked) [Example 28, 3-amino-6-(2,6-difluorophenyl)-5-fluoro-N-(4-(pyrrolidin-3-ylmethoxy)pyridin-3-yl)picolinamide hydrochloride]",2.2
4,"O=C(Nc1cnccc1OCC1CCOCC1)c1ccc(F)c(-c2c(F)cccc2F)n1 [Example 22, 6-(2,6-difluorophenyl)-5-fluoro-N-(4-((tetrahydro-2H-pyran-4-yl)methoxy)pyridin-3-yl)picolinamide]",0.05
5,"O=C(Nc1cnccc1OCC1CCOCC1)c1ccc(C(F)(F)F)c(-c2c(F)cccc2F)n1 [Example 47, 6-(2,6-difluorophenyl)-N-(4-((tetrahydro-2H-pyran-4-yl)methoxy)pyridin-3-yl)-5-(trifluoromethyl)picolinamide]",0.4
6,"CC(O)CCOc1ccncc1NC(=O)c1ccc(F)c(-c2c(F)cccc2F)n1 (centres unmarked) [Example 18, 6-(2,6-difluorophenyl)-5-fluoro-N-(4-(3-hydroxybutoxy)pyridin-3-yl)picolinamide]",0.1
7,"Cl.O=C(Nc1cnccc1OC1CCCNCC1)c1ccc(F)c(-c2c(F)cccc2F)n1 (centres unmarked) [Example 6, N-(4-(azepan-4-yloxy)pyridin-3-yl)-6-(2,6-difluorophenyl)-5-fluoropicolinamide hydrochloride]",1.9
8,"Cl.Nc1cc(F)c(-c2c(F)cccc2F)nc1C(=O)Nc1cnccc1OC1CCNC1 (centres unmarked) [Example 24, 3-amino-6-(2,6-difluorophenyl)-5-fluoro-N-(4-(pyrrolidin-3-yloxy)pyridin-3-yl)picolinamide hydrochloride]",2.1
9,"Cl.O=C(Nc1cnccc1OC1CCNCC1)c1ccc(C(F)(F)F)c(-c2c(F)cccc2F)n1 [Example 45, 6-(2,6-difluorophenyl)-N-(4-(piperidin-4-yloxy)pyridin-3-yl)-5-(trifluoromethyl)picolinamide hydrochloride]",2.7
10,Cl.Nc1cc(C(F)(F)F)c(-c2c(F)cccc2F)nc1C(=O)Nc1cnccc1O[C@H]1CC[C@H](N)CC1 [Example 52],5.4
11,"O=C(Nc1cnccc1OCCC(O)CO)c1ccc(F)c(-c2c(F)cccc2F)n1 (centres unmarked) [Example 21, 6-(2,6-difluorophenyl)-N-(4-(3,4-dihydroxybutoxy)pyridin-3-yl)-5-fluoropicolinamide]",0.1
12,"Cl.NCC(CO)COc1ccncc1NC(=O)c1ccc(C(F)(F)F)c(-c2c(F)cccc2F)n1 (centres unmarked) [Example 58, N-(4-(3-amino-2-(hydroxymethyl)propoxy)pyridin-3-yl)-6-(2,6-difluorophenyl)-5-(trifluoromethyl)picolinamide hydrochloride]",2.6
13,"Cl.NC1CCCC(Oc2ccncc2NC(=O)c2ccc(C(F)(F)F)c(-c3c(F)cccc3F)n2)C1 (centres unmarked) [Example 60, N-(4-((3-aminocyclohexyl)oxy)pyridin-3-yl)-6-(2,6-difluorophenyl)-5-(trifluoromethyl)picolinamide hydrochloride]",5.7
14,"Cl.NC1CCC(Oc2ccncc2NC(=O)c2ccc(F)c(-c3c(F)cccc3F)n2)CC1 (centres unmarked) [Example 10, N-(4-(((1r,4r)-4-aminocyclohexyl)oxy)pyridin-3-yl)-6-(2,6-difluorophenyl)-5-fluoropicolinamide hydrochloride]",2.2
15,"Cl.NCCCCOc1ccncc1NC(=O)c1ccc(F)c(-c2c(F)cccc2F)n1 [Example 15, N-(4-(4-aminobutoxy)pyridin-3-yl)-6-(2,6-difluorophenyl)-5-fluoropicolinamide hydrochloride]",0.7
16,"Cl.Nc1cc(C(F)(F)F)c(-c2c(F)cccc2F)nc1C(=O)Nc1cnccc1OC1CCNCC1 [Example 51, 3-amino-6-(2,6-difluorophenyl)-N-(4-(piperidin-4-yloxy)pyridin-3-yl)-5-(trifluoromethyl)picolinamide hydrochloride]",4.8
17,"Cl.O=C(Nc1cnccc1OCC1CCCNC1)c1ccc(F)c(-c2c(F)cccc2F)n1 (centres unmarked) [Example 7, 6-(2,6-difluorophenyl)-5-fluoro-N-(4-(piperidin-3-ylmethoxy)pyridin-3-yl)picolinamide hydrochloride]",0.8
18,"Cl.Nc1cc(C(F)(F)F)c(-c2c(F)cccc2F)nc1C(=O)Nc1cnccc1OCC1CNC1 [Example 50, 3-amino-N-(4-(azetidin-3-ylmethoxy)pyridin-3-yl)-6-(2,6-difluorophenyl)-5-(trifluoromethyl)picolinamide hydrochloride]",2.7
19,"Cl.NCC(CCl)COc1ccncc1NC(=O)c1nc(-c2c(F)cccc2F)c(F)cc1N (centres unmarked) [Example 34, 3-amino-N-(4-(3-amino-2-(chloromethyl)propoxy)pyridin-3-yl)-6-(2,6-difluorophenyl)-5-fluoropicolinamide hydrochloride]",2.3
20,"Cl.NCCCOc1ccncc1NC(=O)c1ccc(F)c(-c2c(F)cccc2F)n1 [Example 12, N-(4-(3-aminopropoxy)pyridin-3-yl)-6-(2,6-difluorophenyl)-5-fluoropicolinamide hydrochloride]",0.7
21,"Cl.O=C(Nc1cnccc1OC1CCCNC1)c1ccc(F)c(-c2c(F)cccc2F)n1 (centres unmarked) [Example 5, 6-(2,6-difluorophenyl)-5-fluoro-N-(4-(piperidin-3-yloxy)pyridin-3-yl)picolinamide hydrochloride]",0.5
22,"Cl.O=C(Nc1cnccc1OC1CCNCC1)c1ccc(F)c(-c2c(F)cccc2F)n1 [Example 3, 6-(2,6-difluorophenyl)-5-fluoro-N-(4-(piperidin-4-yloxy)pyridin-3-yl)picolinamide hydrochloride]",1.6
23,"Cl.Nc1cc(F)c(-c2c(F)cccc2F)nc1C(=O)Nc1cnccc1OC1CCCNCC1 (centres unmarked) [Example 26, 3-amino-N-(4-(azepan-4-yloxy)pyridin-3-yl)-6-(2,6-difluorophenyl)-5-fluoropicolinamide hydrochloride]",4.3
24,"CNCCCOc1ccncc1NC(=O)c1ccc(F)c(-c2c(F)cccc2F)n1.Cl [Example 13, 6-(2,6-difluorophenyl)-5-fluoro-N-(4-(3-(methylamino)propoxy)pyridin-3-yl)picolinamide hydrochloride]",0.6
25,"Cl.Nc1cc(C(F)(F)F)c(-c2c(F)cccc2F)nc1C(=O)Nc1cnccc1OCC1CCNCC1 [Example 49, 3-amino-6-(2,6-difluorophenyl)-N-(4-(piperidin-4-ylmethoxy)pyridin-3-yl)-5-(trifluoromethyl)picolinamide hydrochloride]",4.3
26,"Cl.Nc1cc(F)c(-c2c(F)cccc2F)nc1C(=O)Nc1cnccc1OCC1CCCNC1 (centres unmarked) [Example 35, 3-amino-6-(2,6-difluorophenyl)-5-fluoro-N-(4-(piperidin-3-ylmethoxy)pyridin-3-yl)picolinamide hydrochloride]",2.1
